In US20160287563A1, “Cysteine Prodrugs” (Promentis Pharmaceuticals, Inc., priority 2011, published 2016):

How the values were obtained:
[1] = Tissue glutathione in the MAM neurodevelopmental model of schizophrenia; assay type: in vivo; details: rats in the MAM neurodevelopmental model (MAM 22 mg/kg IP on gestational day 17)
Protocol: (§1) This approach would have the added benefit of allowing assessing the impact of the compounds on cognitive changes that are thought to be relevant to schizophrenia. Thus, one would be able to test the hypothesis that the conditions that normalize glutathione are also conditions that are expected to improve cognitive performance.
Timed pregnant Sprauge-Dawley rats are given an acute injection of methylazoxymethanol (MAM; 22 mg/kg, IP) or vehicle on gestational day 17. Following vaginal birth, all mothers and offspring are left undisturbed until weaning on postnatal day 22.

[2] = test system: MAM-treated rats; assay: Attentional Set Shifting in MAM-treated rats; assay type: in vivo
Excerpt: as §1
Seven days prior to testing the animals will be food deprived to 85% of their free-feeding weight. Rats will be trained and tested on a four-arm cross maze (60×20×12 inches), constructed from Plexiglas with a removable arm to form a “T” configuration. On the first habituation day, the rat will be allowed to explore and consume up to 20 sugar pellets for 15 minutes. On the second day, the maze will be baited with 12 pellets for 15 minutes. On subsequent days, only one pellet will be placed at the end of each arm. This procedure will be continued daily until the rat consumes 16 sugar pellets in 15 minutes. Once achieved, the turn bias will be determined by forming a “T” configuration with the removable arm. A black-and-white piece of laminated paper for a visual cue will be placed on the floor in one of the arms. One pellet will be placed in each food well of the “T” arms. The rat will then be placed in the stem arm and allowed to choose between the two arms. […]

[3] = test system: cultured cells; assay: Glutathione levels in cultured cells exposed to oxidative stress agents; assay type: cell-based; details: iron 0-120 min exposure to 0-100 microM; ethacrynic acid 0-30 min exposure to 0-10 microM
Excerpt: First, the experiment described in part 1A is repeated, except the harvested tissue is exposed to agents that induce oxidative stress which would prompt the cells to use/increase the synthesis of glutathione (the details are provided below).

Question: With `C[N+]([O-])=NCO` [MAM, methylazoxymethanol] as the compound, how does the “tissue levels of glutathione” value [1] read?
Answer: modest reduction in tissue levels of glutathione

Question: For `CC(=O)N[C@@H](CS)C(=O)O` [NAC, N-acetyl cysteine], which “Attentional Set Shifting deficit” value [2] is on record?
Answer: can be restored

Question: For `C=C(CC)C(=O)c1ccc(OCC(=O)O)c(Cl)c1Cl` [ethacrynic acid], which “tissue levels of glutathione in cultured cells” value [3] is on record?
Answer: decrease tissue levels of glutathione

Question: For `[Fe]` [iron], which “tissue levels of glutathione in cultured cells” value [3] is on record?
Answer: decrease tissue levels of glutathione
